Assay: Inhibition of IMP1 expressed in Escherichia coli BL21 (DE3)

With `O=C(O)C(CS)CCCc1ccccc1` (racemic) as the molecule, how does the Ki read?
Its Ki is 1660 nM.

— ChEMBL document CHEMBL1141441, “Crystallographic investigation of the inhibition mode of a VIM-2 metallo-beta-lactamase from Pseudomonas aeruginosa by a mercaptocarboxylate inhibitor” (J Med Chem, 2007)
